Reference: publication PMC12775434, “Ultra-large virtual screening unveils potent agonists of the neuromodulatory orphan receptor GPR139” (Nature Communications, 2025)
Several values for one entry are separate records, joined by “and”; a condition that tells them apart may be missing. Equal entries are not always repeated. Where two headings read alike, the source gives them in different places.

Experiments:
[1] = target: T1, GPR139 (Homo sapiens, UniProt Q6DWJ6); experiment: Inositol monophosphate (IP1) accumulation assay, GPR139-CHOk1; format: cell-based; conditions: for Emax: normalized to Lundbeck Cmp 1a, read-out: Emax (%) IP1
T1 sequence (Q6DWJ6 1-353): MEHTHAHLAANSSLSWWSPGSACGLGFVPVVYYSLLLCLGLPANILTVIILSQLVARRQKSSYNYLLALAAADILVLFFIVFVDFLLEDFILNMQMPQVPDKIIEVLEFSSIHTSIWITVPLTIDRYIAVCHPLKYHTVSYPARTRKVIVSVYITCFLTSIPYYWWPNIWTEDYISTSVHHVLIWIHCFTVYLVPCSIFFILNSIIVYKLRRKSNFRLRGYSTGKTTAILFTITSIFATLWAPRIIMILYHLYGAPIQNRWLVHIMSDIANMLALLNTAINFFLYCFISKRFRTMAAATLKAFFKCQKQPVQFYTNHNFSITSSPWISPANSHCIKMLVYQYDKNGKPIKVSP
Description: Primary screening and pharmacological characterization of compounds were performed using a CHO-K1 cell line that stably expresses human GPR139 (GPR139-CHOk1). The GPR139-CHOk1 cell line was kindly provided by H. Lundbeck A/S, Denmark[24]. GPR139-CHOk1 cells were grown in Ham’s F-12 Kaighn’s Modification Medium (ThermoFisher #21127030) supplemented with 10% dialyzed fetal bovine serum (US origin, ThermoFisher #26400044), 100 units/mL Penicillin-Streptomycin (ThermoFisher #15140122), and 1 mg/mL Geneticin (ThermoFisher #11811031). […] M1R-CHOk1 cells were purchased from The Missouri S&T cDNA Resource Center (#CEM100TN00). M1R-CHOk1 cells were grown in Ham’s F12 Medium (ThermoFisher #21765029) supplemented with 10% fetal bovine serum (Brazilian origin, ThermoFisher #10270106), 100 units/mL Penicillin-Streptomycin, and 0.25 mg/mL Geneticin. HEK293A cells transiently transfected with GPR139 were used for additional pharmacological assessment of signaling pathways activated by GPR139. HEK239A cells were generously provided by Dr. Asuka Inoue, Tohoku University, Japan. HEK293A cells were grown in Dulbecco’s Modified Eagle Medium (ThermoFisher #31966047) supplemented with 10% dialyzed fetal bovine serum and 100 units/mL Penicillin-Streptomycin. Cell lines were maintained at 37 °C in humidified incubator equilibrated with 5% CO2.
HTRF IP-One Gq kit (Cisbio #62IPAPEC) was used to detect the accumulation of inositol monophosphate (IP1) as described in the work by Shehata et al.[26]. GPR139-CHOk1 cells were dissociated and resuspended in HEPES buffer. 50,000 cells in 5 µL and 5 µL test compounds diluted from DMSO stocks (final DMSO concentration of maximally 0.3%) in HEPES buffer supplemented with 40 mM LiCl were mixed in each well of white 384-well OptiPlate (PerkinElmer #6007290). The cells were incubated for 1 h at 37 °C. Then, 10 µL detection reagent composed of 2.5% Eu3 + -anti-IP1 antibody and 2.5% IP1-d2 diluted in lysis buffer was added, and the cells were incubated for 1 h at room temperature before measurements. Measurements were performed on EnVision Multimode Plate Reader (PerkinElmer) using excitation light of 340 nm and emission light of 615 nm and 665 nm. The time resolved-fluorescence resonance energy transfer (TR-FRET) 665 nm/615 nm ratio, which is inversely proportional to the IP1 accumulation, was used to determine the IP1 response.
Pharmacological data and statistical analyses were performed in GraphPad Prism v9–10 (Graphpad Software Inc., San Diego, CA), which are also specifically described in the figure and table legends. The functional assay responses were normalized to buffer (0%) and Lundbeck Cmp 1a or JNJ-63533054 (100%), for Ca^2+ and IP1 experiments in the GPR139-CHOk1 stable cell line or Ca^2+, G protein activation, and arrestin-3 recruitment experiments in the HEK293A cells transiently transfected with GPR139, respectively. Data are from at least three independent experiments, unless stated otherwise. Concentration-response curves were fitted applying non-linear regression using the log (agonist) versus response model with variable slope. ANOVA was applied for comparing results and determining statistical significance. Comparison of responses to the reference was performed using one-way ANOVA with Dunnett’s multiple comparisons test at significance threshold of p < 0.05. Comparison of responses across assays and ligands was performed using two-way ANOVA with Tukey’s multiple comparisons test at a significance threshold of p < 0.05.

[2] = target: T1, GPR139; experiment: Ca2+ mobilization assay, antagonist mode (EC80 800 nM Lundbeck Cmp 1a after 20 min preincubation), GPR139-CHOk1; format: cell-based
Summary of the method: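 Fluo-4-loaded GPR139-CHOk1 cells in HEPES-buffered HBSS (pH 7.4, 2.5 mM probenecid) given test compounds at 10 µM, then after 20 min challenged with 800 nM Lundbeck Cmp 1a (EC80). Calcium fluorescence read at 37 °C, 485/525 nm.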

[3] = log [Compound] M -4.5, replicate experiments
[4] = log [Compound] M -5.0, replicate experiments
[5] = log [Compound] M -5.5, replicate experiments
[6] = log [Compound] M -6.0, replicate experiments
[7] = log [Compound] M -6.5, replicate experiments
[8] = log [Compound] M -7.0, replicate experiments
[9] = log [Compound] M -7.5, replicate experiments
[10] = log [Compound] M -8.0, replicate experiments
[11] = log [compound] M -4.5, individual replicates
[12] = log [compound] M -5.0, individual replicates
[13] = log [compound] M -5.5, individual replicates
[14] = log [compound] M -6.0, individual replicates
[15] = log [compound] M -6.5, individual replicates
[16] = log [compound] M -7.0, individual replicates
[17] = log [compound] M -7.5, individual replicates
[18] = log [compound] M -8.0, individual replicates
[19] = individual replicates (Supplementary Figure 4)
[20] = Supplementary Table 2, mean ± SEM, read-out: pEC50 IP1 (converted)
[21] = individual replicates (Supplementary Figure 1)

| Structure (SMILES) | Emax ([1]; Supplementary Table 2) [%] | IP1 response (% of Cmp 1a) [1, 3] | IP1 response (% of Cmp 1a) [1, 4] | IP1 response (% of Cmp 1a) [1, 5] | IP1 response (% of Cmp 1a) [1, 6] | IP1 response (% of Cmp 1a) [1, 7] | IP1 response (% of Cmp 1a) [1, 8] | IP1 response (% of Cmp 1a) [1, 9] | IP1 response (% of Cmp 1a) [1, 10] | IP1 response (% of Cmp 1a) [1, 11] | IP1 response (% of Cmp 1a) [1, 12] | IP1 response (% of Cmp 1a) [1, 13] | IP1 response (% of Cmp 1a) [1, 14] | IP1 response (% of Cmp 1a) [1, 15] | IP1 response (% of Cmp 1a) [1, 16] | IP1 response (% of Cmp 1a) [1, 17] | IP1 response (% of Cmp 1a) [1, 18] | Ca2+ signal (% of Cmp 1a) [2, 19] | EC50 [1, 20] [nM] | Ca2+ signal (% of Cmp 1a) [2, 21] | other results |
| --- | --- | --- | --- | --- | --- | --- | --- | --- | --- | --- | --- | --- | --- | --- | --- | --- | --- | --- | --- | --- | --- |
| Cc1cscc1-c1nc(CC(=O)NC(C)c2ccccc2)no1 (stereo not drawn) [Compound 1.1, CC(C1=CC=CC=C1)NC(CC2=NOC(C3=CSC=C3C)=N2)=O] | 91 ± 10 | 92 % of Cmp 1a and 58 % of Cmp 1a and 83 % of Cmp 1a and 87 % of Cmp 1a | 112 % of Cmp 1a and 74 % of Cmp 1a and 80 % of Cmp 1a and 115 % of Cmp 1a | 111 % of Cmp 1a and 87 % of Cmp 1a and 96 % of Cmp 1a and 100 % of Cmp 1a | 125 % of Cmp 1a and 85 % of Cmp 1a and 89 % of Cmp 1a | 112 % of Cmp 1a and 76 % of Cmp 1a (2×) and 95 % of Cmp 1a | 71 % of Cmp 1a and 56 % of Cmp 1a and 38 % of Cmp 1a and 67 % of Cmp 1a | 56 % of Cmp 1a and 27 % of Cmp 1a and 28 % of Cmp 1a and 45 % of Cmp 1a | 22 % of Cmp 1a and 5 % of Cmp 1a and -0.544 % of Cmp 1a and 16 % of Cmp 1a | 92 % of Cmp 1a and 58 % of Cmp 1a and 83 % of Cmp 1a and 87 % of Cmp 1a | 112 % of Cmp 1a and 74 % of Cmp 1a and 80 % of Cmp 1a and 115 % of Cmp 1a | 111 % of Cmp 1a and 87 % of Cmp 1a and 96 % of Cmp 1a and 100 % of Cmp 1a | 125 % of Cmp 1a and 85 % of Cmp 1a and 89 % of Cmp 1a | 112 % of Cmp 1a and 76 % of Cmp 1a (2×) and 95 % of Cmp 1a | 71 % of Cmp 1a and 56 % of Cmp 1a and 38 % of Cmp 1a and 67 % of Cmp 1a | 56 % of Cmp 1a and 27 % of Cmp 1a and 28 % of Cmp 1a and 45 % of Cmp 1a | 22 % of Cmp 1a and 5 % of Cmp 1a and -0.544 % of Cmp 1a and 16 % of Cmp 1a | -3.33 % of Cmp 1a and 11 % of Cmp 1a and -12 % of Cmp 1a | – | – | EC50 ([1]; GPR139-CHOk1, read-out: EC50, IP1 accumulation): 50 nM |
| Cc1nocc1-c1nc(CC(=O)NC(C)c2ccccc2)no1 (stereo not drawn) [Compound 1.5, CC(C1=CC=CC=C1)NC(CC2=NOC(C3=CON=C3C)=N2)=O] | 102 ± 15 | – | – | – | – | – | – | – | – | 120 % of Cmp 1a and 99 % of Cmp 1a and 50 % of Cmp 1a and 106 % of Cmp 1a | 127 % of Cmp 1a and 79 % of Cmp 1a and 71 % of Cmp 1a and 109 % of Cmp 1a | 103 % of Cmp 1a and 63 % of Cmp 1a and 65 % of Cmp 1a and 87 % of Cmp 1a | 75 % of Cmp 1a and 61 % of Cmp 1a and 56 % of Cmp 1a and 68 % of Cmp 1a | 59 % of Cmp 1a and 41 % of Cmp 1a and 29 % of Cmp 1a and 43 % of Cmp 1a | 26 % of Cmp 1a and 25 % of Cmp 1a and 8 % of Cmp 1a and 18 % of Cmp 1a | 22 % of Cmp 1a and 7 % of Cmp 1a and 0.699 % of Cmp 1a and 13 % of Cmp 1a | 12 % of Cmp 1a and -12 % of Cmp 1a and -8.56 % of Cmp 1a and 4.3 % of Cmp 1a | 3.33 % of Cmp 1a and -5.33 % of Cmp 1a and -2.33 % of Cmp 1a | 501 | – | – |
| CC(NC(=O)Cn1cncc(-c2ccccc2)c1=O)c1ccccc1 (stereo not drawn) [Compound 5, C[C@@H](NC(=O)CN1C=NC=C(C=2C=CC=CC2)C1=O)C=3C=CC=CC3] | – | 68 % of Cmp 1a and 53 % of Cmp 1a and 56 % of Cmp 1a | 33 % of Cmp 1a and 17 % of Cmp 1a and 31 % of Cmp 1a | 13 % of Cmp 1a (2×) and 9 % of Cmp 1a | 7 % of Cmp 1a and -0.0762 % of Cmp 1a and 3.67 % of Cmp 1a | -1.74 % of Cmp 1a and -4 % of Cmp 1a and 0.455 % of Cmp 1a | 2.62 % of Cmp 1a and -1.59 % of Cmp 1a and -2.51 % of Cmp 1a | 0.67 % of Cmp 1a and -2.55 % of Cmp 1a and -3 % of Cmp 1a | -0.409 % of Cmp 1a and -3 % of Cmp 1a and -0.447 % of Cmp 1a | – | – | – | – | – | – | – | – | – | – | 38.6236 % of Cmp 1a and 37.7276 % of Cmp 1a and 30.4652 % of Cmp 1a | EC50 ([1]; read-out: pEC50 IP1 (converted)): 25100 nM |
| Cc1cc(-c2nc(CC(=O)NC(C)c3ccccc3)no2)sc1C (stereo not drawn) [Compound 1, CC(NC(=O)CC1=NOC(=N1)C2=CC(C)=C(C)S2)C=3C=CC=CC3] | 114 ± 5 | 99 % of Cmp 1a and 115 % of Cmp 1a and 112 % of Cmp 1a and 118 % of Cmp 1a | 92 % of Cmp 1a and 116 % of Cmp 1a and 103 % of Cmp 1a and 95 % of Cmp 1a | 125 % of Cmp 1a and 86 % of Cmp 1a and 77 % of Cmp 1a and 96 % of Cmp 1a | 63 % of Cmp 1a and 74 % of Cmp 1a and 39 % of Cmp 1a and 72 % of Cmp 1a | 35 % of Cmp 1a and 29 % of Cmp 1a and 17 % of Cmp 1a and 40 % of Cmp 1a | 21 % of Cmp 1a and 14 % of Cmp 1a and 6 % of Cmp 1a and 18 % of Cmp 1a | -5 % of Cmp 1a and 4 % of Cmp 1a and 0.66 % of Cmp 1a and 5.34 % of Cmp 1a | 1.43 % of Cmp 1a and -2.78 % of Cmp 1a and 0.322 % of Cmp 1a and 4 % of Cmp 1a | – | – | – | – | – | – | – | – | – | 794 | 6.536 % of Cmp 1a and 8.894 % of Cmp 1a and 14.743 % of Cmp 1a | – |
